Measurements: ChEMBL document CHEMBL4382242, “Novel racemosin B derivatives as new therapeutic agents for aggressive breast cancer” (Bioorg Med Chem, 2018)
pIC50: −log10 of the molar value. The source made the active and inactive calls. No cut-off for these calls is given here.

Key:
MCF7 = assay: Growth inhibition of human MCF7 cells after 72 hrs by MTT assay; format: functional, cell-based; settings: MCF7, 72 h
MDA-MB-231 [1] = assay: Growth inhibition of human MDA-MB-231 cells after 72 hrs by MTT assay; format: functional, cell-based; settings: MDA-MB-231, 72 h
HEL = assay: Growth inhibition of HEL cells after 72 hrs by MTT assay; format: functional, cell-based; settings: Homo sapiens
MDA-MB-231 [2] = assay: Induction of apoptosis in human MDA-MB-231 cells assessed as late apoptotic cells at 5 uM after 48 hrs by Annexin V-FITC/propidium iodide staining based flow cytometry (reference value: 6.5%); format: functional
[3] = biological target: Serine/threonine-protein kinase mTOR (Homo sapiens) (UniProt P42345); assay: Inhibition of mTOR phosphorylation in human MDA-MB-231 cells at 5 uM after 16 hrs by Western blot analysis; format: cell-based
MDA-MB-231 [4] = assay: Inhibition of autophagy in human MDA-MB-231 cells assessed as LC3-2 accumulation at 5 uM after 16 hrs by DAPI staining based immunofluorescence assay; format: functional, cell-based
MDA-MB-231 [5] = assay: Induction of apoptosis in human MDA-MB-231 cells assessed as live cells at 5 uM after 48 hrs by Annexin V-FITC/propidium iodide staining based flow cytometry (reference value: 87.6%); format: functional
MDA-MB-231 [6] = assay: Induction of apoptosis in human MDA-MB-231 cells assessed as early apoptotic cells at 5 uM after 24 hrs by Annexin V-FITC/propidium iodide staining based flow cytometry (reference value: 3.7%); format: functional
MDA-MB-231 [7] = assay: Cell cycle arrest in human MDA-MB-231 cells assessed as accumulation at G1 phase at 5 uM after 48 hrs by propidium iodide staining based flow cytometry (reference value: 3.19%); format: functional
MDA-MB-231 [8] = assay: Cell cycle arrest in human MDA-MB-231 cells assessed as accumulation at S phase at 5 uM after 48 hrs by propidium iodide staining based flow cytometry (reference value: 31.71%); format: functional
MDA-MB-231 [9] = assay: Cell cycle arrest in human MDA-MB-231 cells assessed as accumulation at G2/M phase at 5 uM after 48 hrs by propidium iodide staining based flow cytometry (reference value: 17.79%); format: functional
MDA-MB-231 [10] = assay: Induction of apoptosis in human MDA-MB-231 cells assessed as necrotic cells at 5 uM after 24 hrs by Annexin V-FITC/propidium iodide staining based flow cytometry (reference value: 0.7%); format: functional
MDA-MB-231 [11] = assay: Induction of apoptosis in human MDA-MB-231 cells assessed as increase in Bax protein expression at 5 uM after 16 hrs by Western blot analysis; format: functional, cell-based
[12] = Growth inhibition of human WM9 cells after 72 hrs by MTT assay; format: functional; settings: WM9, 72 h
4T1 = assay: Growth inhibition of mouse 4T1 cells after 72 hrs by MTT assay; format: functional, cell-based; settings: 4T1, 72 h
MDA-MB-231 [13] = assay: Cell cycle arrest in human MDA-MB-231 cells assessed as accumulation at G2/M phase at 5 uM after 24 hrs by propidium iodide staining based flow cytometry (reference value: 18.5%); format: functional
[14] = Growth inhibition of human WM35 cells after 72 hrs by MTT assay; format: functional; settings: WM35, 72 h
MDA-MB-231 [15] = assay: Cell cycle arrest in human MDA-MB-231 cells assessed as accumulation at G1 phase at 5 uM after 24 hrs by propidium iodide staining based flow cytometry (reference value: 47.9%); format: functional
MDA-MB-231 [16] = assay: Induction of apoptosis in human MDA-MB-231 cells assessed as late apoptotic cells at 5 uM after 24 hrs by Annexin V-FITC/propidium iodide staining based flow cytometry (reference value: 4.8%); format: functional
MDA-MB-231 [17] = assay: Induction of apoptosis in human MDA-MB-231 cells assessed as necrotic cells at 5 uM after 48 hrs by Annexin V-FITC/propidium iodide staining based flow cytometry (reference value: 0.7%); format: functional
MDA-MB-231 [18] = assay: Induction of apoptosis in human MDA-MB-231 cells assessed as early apoptotic cells at 5 uM after 48 hrs by Annexin V-FITC/propidium iodide staining based flow cytometry (reference value: 5.3%); format: functional
K562 = assay: Growth inhibition of human K562 cells after 72 hrs by MTT assay; format: functional, cell-based; settings: K562, 72 h
MDA-MB-231 [19] = assay: Cell cycle arrest in human MDA-MB-231 cells assessed as accumulation at S phase at 5 uM after 24 hrs by propidium iodide staining based flow cytometry (reference value: 29.76%); format: functional
MDA-MB-231 [20] = assay: Induction of morphological changes in human MDA-MB-231 cells assessed as cell detachment at 5 uM after 24 hrs; format: functional, cell-based
MDA-MB-231 [21] = assay: Growth inhibition of human MDA-MB-231 cells at 1 to 5 uM after 72 hrs by MTT assay; format: functional, cell-based
MDA-MB-231 [22] = assay: Induction of apoptosis in human MDA-MB-231 cells assessed as live cells at 5 uM after 24 hrs by Annexin V-FITC/propidium iodide staining based flow cytometry (reference value: 90.8%); format: functional
MDA-MB-231 [23] = assay: Induction of apoptosis in human MDA-MB-231 cells assessed as increase in Cyclin-B1 protein expression at 5 uM after 16 hrs by Western blot analysis; format: functional, cell-based
MDA-MB-231 [24] = assay: Inhibition of autophagy in human MDA-MB-231 cells assessed as increase in p62 protein expression at 5 uM after 16 hrs by Western blot analysis; format: functional, cell-based
MDA-MB-231 [25] = assay: Induction of apoptosis in human MDA-MB-231 cells assessed as decrease in Bcl2 protein expression at 5 uM after 16 hrs by Western blot analysis; format: functional, cell-based
MDA-MB-231 [26] = assay: Induction of morphological changes in human MDA-MB-231 cells assessed as large vacuole formation at 5 uM after 24 hrs; format: functional, cell-based

CN1CCC(NC(=O)c2cc3c4ccccc4[nH]c3c3c2[nH]c2ccccc23)CC1
pIC50 (MCF7): 5.41
pIC50 (MDA-MB-231 [1]): 5.79

O=C(NCc1cccnc1)c1cc2c3ccccc3[nH]c2c2c1[nH]c1ccccc12
pIC50 (MCF7): 5.01
pIC50 (MDA-MB-231 [1]): 5.22

O=C(NCc1ccncc1)c1cc2c3ccccc3[nH]c2c2c1[nH]c1ccccc12
pIC50 (MCF7): 5.09
pIC50 (MDA-MB-231 [1]): 5.25

CN(C)c1ccc(NC(=O)c2cc3c4ccccc4[nH]c3c3c2[nH]c2ccccc23)cc1
pIC50 (MCF7): 4.79
pIC50 (MDA-MB-231 [1]): 5.11

CN1CCN(CCNC(=O)c2cc3c4ccccc4[nH]c3c3c2[nH]c2ccccc23)CC1
pIC50 (MCF7): 5.27
pIC50 (MDA-MB-231 [1]): 5.68

COc1ccc2[nH]c3c(C(=O)NCCN4CCCC4)cc4c5ccccc5[nH]c4c3c2c1
pIC50 (MCF7): 5.25
pIC50 (MDA-MB-231 [1]): 5.55

CN(C)CCN(C)C(=O)c1cc2c3ccccc3[nH]c2c2c1[nH]c1ccccc12
pIC50 (MCF7): 5.20
pIC50 (MDA-MB-231 [1]): 5.53

COC(=O)c1cc2c3ccccc3[nH]c2c2c1[nH]c1cc(Cl)ccc12
pIC50 (MCF7): < 4.40
pIC50 (MDA-MB-231 [1]): < 4.40

CCN(CC)CCNC(=O)c1cc2c3ccccc3[nH]c2c2c1[nH]c1ccccc12
pIC50 (MCF7): 5.62
pIC50 (MDA-MB-231 [1]): 5.77

COC(=O)c1cc2c3ccccc3[nH]c2c2c1[nH]c1ccc(Br)cc12
pIC50 (MCF7): < 4.40
pIC50 (MDA-MB-231 [1]): < 4.40

COc1cccc2c1C(=O)c1c(O)c3c(c(O)c1C2=O)C[C@@](O)(C(=O)CO)C[C@@H]3O[C@H]1C[C@H](N)[C@H](O)[C@H](C)O1 [DOXORUBICIN]
pIC50 (MCF7): 6.38
pIC50 (MDA-MB-231 [1]): 6.60

O=C(NCCN1CCCC1)c1cc2c3ccccc3[nH]c2c2c1[nH]c1ccc(Br)cc12
pIC50 (MCF7): 5.89
pIC50 (MDA-MB-231 [1]): 5.74

CN(C)CCCNC(=O)c1cc2c3ccccc3[nH]c2c2c1[nH]c1ccccc12
pIC50 (MCF7): 5.43
pIC50 (MDA-MB-231 [1]): 5.35

CN(C)c1ccccc1NC(=O)c1cc2c3ccccc3[nH]c2c2c1[nH]c1ccccc12
pIC50 (MCF7): 4.97
pIC50 (MDA-MB-231 [1]): 5.11

O=C(NCCN1CCOCC1)c1cc2c3ccccc3[nH]c2c2c1[nH]c1ccccc12
pIC50 (MCF7): 5.11
pIC50 (MDA-MB-231 [1]): 5.36

O=C(NCc1ccccn1)c1cc2c3ccccc3[nH]c2c2c1[nH]c1ccccc12
pIC50 (MCF7): 4.64
pIC50 (MDA-MB-231 [1]): 5.10

COc1ccc2[nH]c3c(C(=O)NCCN(C)C)cc4c5ccccc5[nH]c4c3c2c1
pIC50 (MCF7): 5.29
pIC50 (MDA-MB-231 [1]): 5.56

COc1cc([C@@H]2c3cc4c(cc3[C@@H](O[C@@H]3O[C@@H]5CO[C@@H](C)O[C@H]5[C@H](O)[C@H]3O)[C@H]3COC(=O)[C@H]23)OCO4)cc(OC)c1O [ETOPOSIDE]
pIC50 (HEL): 6.04
Activity (MDA-MB-231 [2]): 8.8%
inhibition [3]: inactive
inhibition (MDA-MB-231 [4]): inactive
Activity (MDA-MB-231 [5]): 75.5%
Activity (MDA-MB-231 [6]): 4.6%
Activity (MDA-MB-231 [7]): 8.57%
Activity (MDA-MB-231 [8]): 15.48%
Activity (MDA-MB-231 [9]): 70.43%
Activity (MDA-MB-231 [10]): 0.7%
pIC50 (MCF7): < 5.00
Activity (MDA-MB-231 [11]): Active
pIC50 [12]: 5.76
pIC50 (4T1): < 5.00
Activity (MDA-MB-231 [13]): 63.98%
pIC50 [14]: 6.40
Activity (MDA-MB-231 [15]): 7.59%
Activity (MDA-MB-231 [16]): 4%
Activity (MDA-MB-231 [17]): 10.1%
Activity (MDA-MB-231 [18]): 5.5%
pIC50 (K562): 5.03
Activity (MDA-MB-231 [19]): 19.24%
Activity (MDA-MB-231 [20]): Active
growth inhibition (GI) (MDA-MB-231 [21]): Active
pIC50 (MDA-MB-231 [1]): < 5.00
Activity (MDA-MB-231 [22]): 90.7%
Activity (MDA-MB-231 [23]): Active
inhibition (MDA-MB-231 [24]): inactive
Activity (MDA-MB-231 [25]): Active

CCN1CCCC1CNC(=O)c1cc2c3ccccc3[nH]c2c2c1[nH]c1ccccc12 (centres undefined)
pIC50 (MCF7): 5.23
pIC50 (MDA-MB-231 [1]): 5.45

O=C(NCCN1CCCCC1)c1cc2c3ccccc3[nH]c2c2c1[nH]c1ccccc12
pIC50 (MCF7): 5.49
pIC50 (MDA-MB-231 [1]): 5.76

O=C(NCCNCCO)c1cc2c3ccccc3[nH]c2c2c1[nH]c1ccccc12
pIC50 (MCF7): 5.31
pIC50 (MDA-MB-231 [1]): 5.69

CN(C)CCNC(=O)c1cc2c3ccccc3[nH]c2c2c1[nH]c1ccc(Br)cc12
pIC50 (HEL): 5.44
Activity (MDA-MB-231 [2]): 5.5%
inhibition [3]: Active
inhibition (MDA-MB-231 [4]): Active
Activity (MDA-MB-231 [5]): 70.8%
Activity (MDA-MB-231 [6]): 10.8%
Activity (MDA-MB-231 [7]): 48.65%
Activity (MDA-MB-231 [8]): 21.38%
Activity (MDA-MB-231 [9]): 29.98%
Activity (MDA-MB-231 [10]): 2%
pIC50 (MCF7): 5.70
Activity (MDA-MB-231 [11]): inactive
pIC50 [12]: 5.61
pIC50 (4T1): 5.56
Activity (MDA-MB-231 [13]): 22.91%
pIC50 [14]: 5.42
Activity (MDA-MB-231 [15]): 47.46%
Activity (MDA-MB-231 [16]): 5%
Activity (MDA-MB-231 [17]): 9.6%
Activity (MDA-MB-231 [18]): 14.2%
Activity (MDA-MB-231 [26]): Active
pIC50 (K562): 5.81
Activity (MDA-MB-231 [19]): 29.31%
growth inhibition (GI) (MDA-MB-231 [21]): Active
pIC50 (MDA-MB-231 [1]): 5.97
Activity (MDA-MB-231 [22]): 82.2%
Activity (MDA-MB-231 [23]): inactive
inhibition (MDA-MB-231 [24]): Active
Activity (MDA-MB-231 [25]): inactive

COC(=O)c1cc2c3ccccc3[nH]c2c2c1[nH]c1ccccc12
pIC50 (MCF7): < 4.40
pIC50 (MDA-MB-231 [1]): < 4.40

O=C(NCCc1c[nH]cn1)c1cc2c3ccccc3[nH]c2c2c1[nH]c1ccccc12
pIC50 (MCF7): 5.31
pIC50 (MDA-MB-231 [1]): 5.38

O=C(NCCN1CCCC1)c1cc2c3ccccc3[nH]c2c2c1[nH]c1ccccc12
pIC50 (MCF7): 5.51
pIC50 (MDA-MB-231 [1]): 5.85

CN(C)CCNC(=O)c1cc2c3ccccc3[nH]c2c2c1[nH]c1ccccc12
pIC50 (MCF7): 5.47
pIC50 (MDA-MB-231 [1]): 5.84

COC(=O)c1cc2c3ccccc3[nH]c2c2c1[nH]c1ccc(OC)cc12
pIC50 (MCF7): < 4.40
pIC50 (MDA-MB-231 [1]): < 4.40

CN(C)CCNC(=O)c1cc2c3ccccc3[nH]c2c2c1[nH]c1cc(Cl)ccc12
pIC50 (MCF7): 5.10
pIC50 (MDA-MB-231 [1]): 5.35

O=C(NCCN1CCCC1)c1cc2c3ccccc3[nH]c2c2c1[nH]c1cc(Cl)ccc12
pIC50 (MCF7): 5.08
pIC50 (MDA-MB-231 [1]): 5.24

CC(C)N(CCNC(=O)c1cc2c3ccccc3[nH]c2c2c1[nH]c1ccccc12)C(C)C
pIC50 (MCF7): 5.51
pIC50 (MDA-MB-231 [1]): 5.76
